What was measured:
liver ferritin [1] = test: Analysis of the ferritin from rat livers (quantitative determination of ferritin protein and its iron content); format: in vivo; settings: for Ratio of iron to protein: rat liver ferritin, two successive daily doses corresponding to 52.5 mg Fe/kg; for Ratio of iron to protein / Ferritin-iron / Ferritin-protein: average values from 6 animals; for Ferritin-iron / Ferritin-protein: two successive daily doses corresponding to 52.5 mg Fe/kg (table; text 52.2), 24 hours after 2nd administration
Protocol: 24 hours after the 2nd administration the animals were killed. […] For this, ferritin is isolated from the liver by thermal denaturation, ammonium sulfate fractionation and gel filtration, and the protein is determined by amino acid analysis and the iron content by atom absorption.

[2] = tested on: ability to utilize the iron; settings: among 2a-d, according to details in the literature; cited from earlier work
liver ferritin [3] = test: Histological comparison test of liver ferritin (Berlin-blue reaction); format: in vivo; settings: 6 male rats and 6 male mice; 2 doses corresponding to 52.2 mg Fe/kg; 24 hours after 2nd administration
Protocol: After oral administration, sideropenia resulting from by-passing the normal regulating mechanism in the intestine for ionic iron, is quickly compensated. Thus, the results of an iron-deficient diet for rats and mice, such as reduced body weight, decrease of hemoglobin, of the hematocrit, of the serum iron and of the number of erythrocytes, is fully compensated by the administration once of a dose of one of the compounds according to the invention corresponding to 2 mg of iron per animal. The compounds according to the invention are resorbed well orally, the excretion of unchanged substance in urine usually being less than 1%. The compounds are distinguished by a distinct nontoxicity, the LD50 of 4-ferrocenoyl-cyclohexene thus amounting to 2000 mg/kg in mice and 3,000 mg/kg in rats. As can be shown by biochemical determination of the ferritin protein and its degree of iron saturation, the compounds are completely metabolised in the liver, that is, the iron is released and incorporated in the storage form that can be used to form hemoglobin, that is in liver ferritin, and in the case of an excess of added substance, in ferritin and in hemosiderin. These discoveries are supported by histological comparison tests, in which the increase of liver ferritin is recognisable in a Berlin-blue reaction in the form of a uniform blue shading of the cytoplasma of the liver cells, and any hemosiderin that may have formed is recognisable in the form of fine blue grains.
The compounds were administered to 6 male rats and 6 male mice on two successive days in individual doses corresponding to an iron content of 52.2 mg Fe per kg of animal. 24 hours after the 2nd administration the animals were killed. […] The quantitative determination of the ferritin protein and its iron content (table) confirm these findings. For this, ferritin is isolated from the liver by thermal denaturation, ammonium sulfate fractionation and gel filtration, and the protein is determined by amino acid analysis and the iron content by atom absorption.

rats = test: Acute toxicity (LD50) in rats
mice = test: Acute toxicity (LD50) in mice

1,1'-di-neopentyl ferrocene [Example 2d]
Ratio of iron to protein (liver ferritin [1]): 0.38 | Ferritin-iron (liver ferritin [1]; rat liver): 61 μg/g tissue | Ferritin-protein (liver ferritin [1]; rat liver): 130 μg/g tissue | ability to utilize the iron [2]: the best, especially regarding its ability to utilize the iron | histological increase of the liver ferritin (liver ferritin [3]): do not cause any histologically recognisable increase of the liver ferritin

1,1'-di-(3,5,5-trimethyl-hexanoyl)-ferrocene [Example 2b]
Ratio of iron to protein (liver ferritin [1]): 0.26 | Ferritin-iron (liver ferritin [1]; rat liver): 148 μg/g tissue | Ferritin-protein (liver ferritin [1]; rat liver): 567 μg/g tissue

1,1'-di-hexahydrobenzoyl ferrocene [Example 2c]
Ratio of iron to protein (liver ferritin [1]): 0.42 | Ferritin-iron (liver ferritin [1]; rat liver): 94 μg/g tissue | Ferritin-protein (liver ferritin [1]; rat liver): 224 μg/g tissue | histological increase of the liver ferritin (liver ferritin [3]): do not cause any histologically recognisable increase of the liver ferritin

O=C([c-]1cccc1)C1CC=CCC1.[Fe+2].c1cc[cH-]c1 (centres unmarked) [Example 1, 4-Ferrocenoyl-cyclohexene]
LD50 (rats): 3,000 mg/kg | Ratio of iron to protein (liver ferritin [1]): 1.19 | ferritin protein and its iron content in comparison with the known compounds 2a-d (liver ferritin [1]; rat liver, after administration, from the table): clearly increased more markedly | Ferritin-iron (liver ferritin [1]; rat liver): 1133 μg/g tissue | Ferritin-protein (liver ferritin [1]; rat liver): 950 μg/g tissue | LD50 (mice): 2000 mg/kg | hemosiderin particles, histologically (liver ferritin [3]): individual hemosiderin particles are observed | histological increase of the liver ferritin (liver ferritin [3]): in comparison with 2a and 2b exhibits a substantially greater increase of the liver ferritin

O=C([c-]1cccc1)C1CCCCC1.[Fe+2].c1cc[cH-]c1 [Example 2a, hexahydrobenzoyl ferrocene]
Ratio of iron to protein (liver ferritin [1]): 0.43 | Ferritin-iron (liver ferritin [1]; rat liver): 209 μg/g tissue | Ferritin-protein (liver ferritin [1]; rat liver): 475 μg/g tissue

From patent US4141991A, “Ferrocene derivatives” (Hoechst Aktiengesellschaft, priority 1976, dated 1979)
